Results taken from ChEMBL document CHEMBL1671624, “Efficacy of quinoxaline-2-carboxylate 1,4-di-N-oxide derivatives in experimental tuberculosis” (Antimicrob Agents Chemother, 2008).
≈ marks a conversion by molar mass, not a printed value.

Experiments:
Mus musculus [1] = test: Toxicity in C57BL/6 mouse assessed as acute adverse effects upto 1000 mg/kg, po; format: organism-based; set-up: dose 1000 mg/kg, route oral; conditions: in vivo
[2] = system: Mycobacterium tuberculosis; test: Antimicrobial activity against Mycobacterium tuberculosis Erdman by microplate Alamar Blue assay; format: functional
[3] = system: Mycobacterium tuberculosis; test: Antibacterial activity against Mycobacterium tuberculosis by microplate Alamar Blue assay; format: functional
[4] = system: Mycobacterium tuberculosis; test: Ratio of EC50 to MIC for Mycobacterium tuberculosis; format: functional
[5] = system: Mycobacterium tuberculosis; test: Antibacterial activity against p-aminosalicylic acid-resistant Mycobacterium tuberculosis by microplate Alamar Blue assay; format: functional
[6] = system: Mycobacterium tuberculosis; test: Antibacterial activity against Mycobacterium tuberculosis Erdman infected in gamma interferon gene knockout C57BL/6 mouse assessed as bacterial load in lung at 300 mg/kg, po administered 18 days postinfection for 9 days measured on day 24 (Rvb= 4.47+/-0.12 log CFU); format: functional
[7] = Selectivity index, ratio of EC50 for african green monkey Vero cells to MIC for Mycobacterium tuberculosis; format: functional
Mus musculus [8] = test: Toxicity in C57BL/6 mouse assessed as acute reactions upto 1000 mg/kg, po; format: organism-based; set-up: dose 1000 mg/kg, route oral; conditions: in vivo
[9] = system: Mycobacterium tuberculosis; test: Antibacterial activity against Mycobacterium tuberculosis H37Rv by microplate Alamar Blue assay; format: functional
[10] = system: Mycobacterium tuberculosis; test: Antibacterial activity against Mycobacterium tuberculosis Erdman infected in gamma interferon gene knockout C57BL/6 mouse assessed as bacterial load in spleen at 300 mg/kg, po administered 18 days postinfection for 9 days measured on day 24 (Rvb= 6.57+/-0.17 log CFU); format: functional
[11] = system: Mycobacterium tuberculosis; test: Antibacterial activity against Mycobacterium tuberculosis H37Rv under aerobic conditions; format: functional
[12] = system: Mycobacterium tuberculosis; test: Antibacterial activity against Mycobacterium tuberculosis H37Rv under anaerobic conditions by luciferase based low oxygen recovery assay; format: functional
[13] = system: Mycobacterium tuberculosis; test: Antibacterial activity against Mycobacterium tuberculosis Erdman infected in gamma interferon gene knockout C57BL/6 mouse assessed as log reduction in bacterial load in spleen at 300 mg/kg, po administered 18 days postinfection for 9 days measured on day 24 relative to control; format: functional
[14] = system: Mycobacterium tuberculosis; test: Ratio of […] for Mycobacterium tuberculosis H37Rv; format: functional
Mus musculus [15] = test: Toxicity in gamma interferon gene knockout C57BL/6 mouse infected with Mycobacterium tuberculosis Erdman assessed as lethargic at 300 mg/kg, po administered 18 days postinfection for 9 days; format: organism-based; set-up: dose 300 mg/kg, route oral; conditions: in vivo
[16] = system: Mycobacterium tuberculosis; test: Antibacterial activity against Mycobacterium tuberculosis Erdman infected in gamma interferon gene knockout C57BL/6 mouse assessed as log reduction in bacterial load in lung at 300 mg/kg, po administered 18 days postinfection for 9 days measured on day 24 relative to control; format: functional
[17] = system: Mycobacterium tuberculosis; test: Antibacterial activity against Mycobacterium tuberculosis Erdman infected in gamma interferon gene knockout C57BL/6 mouse assessed as log reduction in bacterial load in spleen at 25 mg/kg, po administered 18 days postinfection for 9 days measured on day 24 relative to control; format: functional
Mus musculus [18] = test: Toxicity in gamma interferon gene knockout C57BL/6 mouse infected with Mycobacterium tuberculosis Erdman assessed as with a hunched posture at 300 mg/kg, po administered 18 days postinfection for 9 days; format: organism-based; set-up: dose 300 mg/kg, route oral; conditions: in vivo
[19] = system: Mycobacterium tuberculosis; test: Antibacterial activity against Mycobacterium tuberculosis Erdman infected in gamma interferon gene knockout C57BL/6 mouse assessed as log reduction in bacterial load in lung at 100 mg/kg, po administered 18 days postinfection for 9 days measured on day 24 relative to control; format: functional
Blood [20] = test: Drug level in C57BL/6 mouse blood at 100 mg/kg, po; format: ADME, organism-based; set-up: dose 100 mg/kg, route oral; conditions: in vivo
[21] = Terminal half life in C57BL/6 mouse; format: ADME, organism-based; conditions: in vivo, read-out: beta t1/2 (converted)
Blood [22] = test: Drug level in C57BL/6 mouse blood at 300 mg/kg, po; format: ADME, organism-based; set-up: dose 300 mg/kg, route oral; conditions: in vivo
Blood [23] = test: Drug level in C57BL/6 mouse blood at 25 mg/kg, po; format: ADME, organism-based; set-up: dose 25 mg/kg, route oral; conditions: in vivo
[24] = Cmax in C57BL/6 mouse serum after 15 to 30 mins at 100 to 200 mg/kg, po; format: ADME, organism-based; set-up: dose 100-200 mg/kg, route oral
[25] = system: Mycobacterium tuberculosis; test: Antibacterial activity against Mycobacterium tuberculosis Erdman infected in gamma interferon gene knockout C57BL/6 mouse assessed as log reduction in bacterial load in spleen at 100 mg/kg, po administered 18 days postinfection for 9 days measured on day 24 relative to control; format: functional
[26] = system: Mycobacterium tuberculosis; test: Antibacterial activity against Mycobacterium tuberculosis Erdman infected in gamma interferon gene knockout C57BL/6 mouse assessed as log reduction in bacterial load in lung at 25 mg/kg, po administered 18 days postinfection for 9 days measured on day 24 relative to control; format: functional
[27] = system: Mycobacterium tuberculosis; test: Antibacterial activity against Mycobacterium tuberculosis H37Rv assessed as compound concentration required for 99.9% bacterial killing by microplate Alamar Blue assay; format: functional
[28] = system: Mycobacterium tuberculosis; test: Antibacterial activity against Mycobacterium tuberculosis Erdman infected in gamma interferon gene knockout C57BL/6 mouse assessed as bacterial load in spleen at 25 mg/kg, po administered 18 days postinfection for 9 days measured on day 24 (Rvb= 6.57+/-0.17 log CFU); format: functional
[29] = system: Mycobacterium tuberculosis; test: Antibacterial activity against Mycobacterium tuberculosis Erdman infected in gamma interferon gene knockout C57BL/6 mouse assessed as bacterial load in lung at 25 mg/kg, po administered 18 days postinfection for 9 days measured on day 24 (Rvb= 4.47+/-0.12 log CFU); format: functional

Structure (SMILES) | Activity (Mus musculus [1]) | MIC [2] | MIC [3] | Ratio [4] | MIC [5] | log10cfu [6] | Selectivity Index [7] | Activity (Mus musculus [8]) | MIC [9] | log10cfu [10] | other results
Cc1c(C(=O)OCc2ccccc2)[n+]([O-])c2ccccc2[n+]1[O-] | Non-toxic | 0.1 µg/mL (≈ 0.322 µM) | 0.1 µg/mL (≈ 0.322 µM) | 1.5 | 0.2 µg/mL (≈ 0.645 µM) | 7.41 | 470 | Non-toxic | 0.2 µg/mL (≈ 0.645 µM) | 6.96 | –
COC(=O)c1c(C)[n+]([O-])c2cc(C)c(C)cc2[n+]1[O-] | – | – | 3.13 µg/mL (≈ 11.9 µM) | 0.52 | 3.13 µg/mL (≈ 11.9 µM) | – | >20 | – | 3.13 µg/mL (≈ 11.9 µM) | – | –
O=[N+]([O-])c1cn2c(n1)OC[C@@H](OCc1ccc(OC(F)(F)F)cc1)C2 [PRETOMANID] | – | – | – | – | – | – | – | – | – | – | MIC [11]: 0.1 µg/mL (≈ 0.278 µM); MIC [12]: 1.4 µg/mL (≈ 3.9 µM)
CCOC(=O)c1c(C)[n+]([O-])c2ccc(C)cc2[n+]1[O-] | – | – | 1.56 µg/mL (≈ 5.95 µM) | 1.4 | 3.13 µg/mL (≈ 11.9 µM) | – | >40.06 | – | 3.13 µg/mL (≈ 11.9 µM) | – | –
CCOC(=O)c1c(C)[n+]([O-])c2cc(C)c(C)cc2[n+]1[O-] | – | – | 6.25 µg/mL (≈ 22.6 µM) | 0.46 | – | – | >10 | – | ≤ 3.13 µg/mL | – | –
Cc1ccc2c(c1)[n+]([O-])c(C(=O)OCc1ccccc1)c(C)[n+]2[O-] | Non-toxic | 0.78 µg/mL (≈ 2.4 µM) | 0.39 µg/mL (≈ 1.2 µM) | 2.9 | 0.78 µg/mL (≈ 2.4 µM) | 7.17 | 143.7 | Non-toxic | 0.39 µg/mL (≈ 1.2 µM) | 6.63 | –
Cc1c(C(=O)OCc2ccccc2)[n+]([O-])c2cc(Cl)c(Cl)cc2[n+]1[O-] | Non-toxic | 0.1 µg/mL (≈ 0.264 µM) | 0.2 µg/mL (≈ 0.527 µM) | 14.35 | – | 8.07 | 29 | Non-toxic | 0.39 µg/mL (≈ 1.03 µM) | 7.17 | –
CCOC(=O)c1c(C)[n+]([O-])c2ccc(Cl)cc2[n+]1[O-] | Non-toxic | 0.78 µg/mL (≈ 2.76 µM) | 0.2 µg/mL (≈ 0.708 µM) | 2.3 | – | 4.55 | >50 | Non-toxic | 0.2 µg/mL (≈ 0.708 µM) | 3.95 | log10cfu [13]: 5.51; Ratio [14]: 4.2; Activity (Mus musculus [15]): Toxic; MIC [11]: 0.24 µg/mL (≈ 0.849 µM); log10cfu [16]: 5.58; log10cfu [17]: 1.61; Activity (Mus musculus [18]): Toxic; log10cfu [19]: 2.03; Drug uptake (Blood [20]): 6 µg/mL; half-life [21]: 240 min; Drug uptake (Blood [22]): 9 µg/mL; Drug uptake (Blood [23]): 3 µg/mL; Cmax [24]: 5000 ng/mL; log10cfu [25]: 2.72; log10cfu [26]: 0.99; MBC [27]: 2.5 µg/mL (≈ 8.84 µM); MIC [12]: 0.42 µg/mL (≈ 1.49 µM)
NNC(=O)c1ccncc1 [ISONIAZID] | – | – | – | – | – | – | – | – | – | – | log10cfu [17]: 5.04; log10cfu [28]: 2.2; log10cfu [29]: 4.47; log10cfu [26]: 3.33
O=C(Nc1ccc([N+](=O)[O-])cc1Cl)c1cc(Cl)ccc1O [NICLOSAMIDE] | – | – | – | – | – | – | – | – | – | – | MIC [11]: 0.28 µg/mL (≈ 0.856 µM); MIC [12]: 0.32 µg/mL (≈ 0.978 µM)
CCOC(=O)c1c(C)[n+]([O-])c2cc(Cl)c(Cl)cc2[n+]1[O-] | Non-toxic | 0.39 µg/mL (≈ 1.23 µM) | 0.2 µg/mL (≈ 0.631 µM) | >3.15 | – | 7.64 | >20 | Non-toxic | 0.2 µg/mL (≈ 0.631 µM) | 6.75 | –
COCCOC(=O)c1c(C)[n+]([O-])c2cc(Cl)c(Cl)cc2[n+]1[O-] | Non-toxic | 0.39 µg/mL (≈ 1.12 µM) | 0.39 µg/mL (≈ 1.12 µM) | >4 | 0.78 µg/mL (≈ 2.25 µM) | 8.73 | 11.54 | Non-toxic | ≤ 0.2 µg/mL | 7.18 | –
COC(=O)c1c(C)[n+]([O-])c2ccc(C)cc2[n+]1[O-] | – | – | 1.56 µg/mL (≈ 6.28 µM) | 1.24 | 3.13 µg/mL (≈ 12.6 µM) | – | >40.06 | – | 3.13 µg/mL (≈ 12.6 µM) | – | –
Cc1c(C(=O)OCc2ccccc2)[n+]([O-])c2cc(Cl)ccc2[n+]1[O-] | Non-toxic | 0.1 µg/mL (≈ 0.29 µM) | 0.1 µg/mL (≈ 0.29 µM) | 0.01 | – | 7.21 | 76.9 | Non-toxic | – | 6.62 | –
CCOC(=O)c1c(C)[n+]([O-])c2ccccc2[n+]1[O-] | – | – | 1.56 µg/mL (≈ 6.28 µM) | 0.56 | – | – | 30.13 | – | 1.56 µg/mL (≈ 6.28 µM) | – | –
